Key:
YAP1 = YAP1 levels in MM cells after treatment; type: cell-based
Protocol: MM cells were harvested and lysed using lysis buffer: 50 mMTris-HCl (pH 7.4), 150 mM NaCl, 1% NP-40, 5 mM EDTA, 5 mM NaF, 2 mM Na3VO4, 1 mM PMSF, 5 μg/mL leupeptine, and 5 μg/mL aprotinin. Nuclear extracts were prepared using Nuclear Extraction Kit (Panomics). Cell lysates were subjected to sodium dodecyl sulfate-polyacrylamide gel electrophoresis SDS-PAGE, transferred to nitrocellulose membranes, and immunoblotted with different antibodies: ATM, phospho-ATM (Ser1981), ATR, phospho-ATR (Ser428), CHK2, phospho-CHK2 (Thr68), CHK1, phospho-CHK1 (Ser296), p21, p53, phospho-p53 (ser127), STK4, LATS1, phospho-LATS1 (Ser909), phospho-ABL1 (Thr735), cleaved caspase 3, cleaved PARP, histone H3, SAPK/JNK, phospho-SAPK/JNK (Thr183/Tyr185), GM130, GAPDH, and α-tubulin (Cell Signaling); STK4, Nuclear Matrix Protein p84 (Abeam), p73 (BD), phospho-H2A.X (Ser139) (Millipore); as well as ABL1, BAX, Puma, Noxa, actin and nucleolin (Santa Cruz Biotechnology).

STK4 = target: T1, STK4 (Homo sapiens, UniProt Q13043); experiment: STK4 biochemical kinase inhibition
T1 sequence (Q13043 1-487): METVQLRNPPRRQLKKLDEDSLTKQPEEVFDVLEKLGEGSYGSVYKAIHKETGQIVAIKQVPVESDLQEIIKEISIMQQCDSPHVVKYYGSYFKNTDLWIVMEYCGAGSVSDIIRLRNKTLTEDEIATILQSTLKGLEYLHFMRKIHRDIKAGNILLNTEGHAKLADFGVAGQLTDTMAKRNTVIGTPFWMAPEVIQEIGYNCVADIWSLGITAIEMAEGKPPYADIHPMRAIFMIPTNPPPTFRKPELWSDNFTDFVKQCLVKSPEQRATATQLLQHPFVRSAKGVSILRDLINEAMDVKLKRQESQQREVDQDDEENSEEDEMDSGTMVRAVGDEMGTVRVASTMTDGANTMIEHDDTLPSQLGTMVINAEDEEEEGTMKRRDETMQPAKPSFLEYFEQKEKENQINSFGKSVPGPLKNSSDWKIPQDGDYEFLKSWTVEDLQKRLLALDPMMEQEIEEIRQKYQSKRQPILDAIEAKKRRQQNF

MM cell lines = experiment: Cell growth in a large panel of MM cell lines; type: cell-based
[1] = tested on: KMS-20 cell line, with YAP1 deletion; experiment: Cell growth in YAP1-deleted KMS-20; type: cell-based; settings: KMS-20, YAP1 deleted
[2] = tested on: ALL (Jurkat) and AML (OCI/AML3) cell lines; experiment: YAP1 levels, cell number and apoptosis in ALL and AML cell lines; type: cell-based
MM.1S cells = experiment: Apoptosis by Annexin V-FITC/PI staining, MM.1S; type: cell-based, human; settings: 10 μM, untreated 11%
Protocol: (§1) In particular, cells were washed twice with room-temperature PBS, resuspended in 100 μL of Annexin binding buffer, and stained with specific antibodies for 20 minutes.

[3] = MTT viability assay, U266; type: cell-based; settings: human, U266 multiple myeloma cells, 10 μM
Protocol: Viability of MM cells was evaluated by 3-[4,5-dimethylthiazol-2-yl]-2,5-diphenyltetrazolium bromide (MTT) colorimetric survival assay. MM cells (20,000-50,000) were plated in 100 μL medium. At the various time points (24-96 hours), 10 μL 5 mg/mL MTT were added to plated cells. After 4 hour incubation at 37° C., medium was discarded and 100 μL MTT stop solution (Isopropanonol with […] Hcl) used to dissolve MTT metabolic products. Absorbance was read at 570 nm and background was subtracted at 630 nm, using spectrophotometer SPECTRAMAX M2 machine and Softmax Pro v5 software. Cellular growth was estimated by cell counting in triplicates, excluding dead cells stained by trypan blue.

RL = experiment: MTT / Annexin V-PI, RL; type: cell-based; settings: no nuclear ABL1
U266 MM cell line = experiment: Apoptosis by Annexin V-FITC/PI staining, U266; type: cell-based; settings: 10 μM, untreated 10%
Protocol: as §1

HL-60 = experiment: MTT / Annexin V-PI, HL-60; type: cell-based; settings: HL-60, YAP1 basal expression
[4] = tested on: leukemia and lymphoma cell lines; experiment: MTT growth inhibition and Annexin V-PI apoptosis in a leukemia and lymphoma cell line panel; type: cell-based; settings: cell lines where the DNA damage-ABL1-YAP1 axis was activated

With NS(=O)(=O)c1ccc(N/N=C2\C(=O)Nc3ccc4ncccc4c32)cc1 [GW305178X] the “YAP1 levels after treatment” value (YAP1; MM cells) was “robust increase in YAP1 levels”, the IC50 (STK4) was 12 nM and the “effect on cell growth / proliferation in MM cell lines” value (MM cell lines) was “reduced proliferation in most cell lines with low YAP1 levels”. The “activity against KMS-20” value [1] was “not active” and the “YAP1 levels, cell number and apoptosis” value [2] was “increased YAP1 levels, reduced cell number, and enhanced apoptosis”.
For COc1cc(Nc2c(C#N)cnc3cc(OCCCN4CCN(C)CC4)c(OC)cc23)c(Cl)cc1Cl [SKI-606], the “apoptosis (Annexin V-FITC/PI)” value (MM.1S cells) was 76%, the viability at 24 h, 10 µM ([3]; 24 h, read-out: 24 hour viability (MTT, normalized to DMSO)) was 93.8% and the viability at 48 h, 10 µM ([3]; 48 h, read-out: 48 hour viability (MTT, normalized to DMSO)) was 76.1%. The viability at 72 h, 10 µM ([3]; 72 h, read-out: 72 hour viability (MTT, normalized to DMSO)) was 53.8%, the viability at 96 h, 10 µM ([3]; 96 h, read-out: 96 hour viability (MTT, normalized to DMSO)) was 28.5% and the “YAP1 expression after treatment” value (YAP1; MM.1S and U266, 10 μM) was “significant increase of YAP1 expression”. For the same molecule, the response to treatment (RL) was “did not respond to the treatment”, the “apoptosis (Annexin V-PI)” value (U266 MM cell line) was 58% and the response to treatment (HL-60) was “did not respond to the treatment”. The “cellular proliferation and survival” value [4] was “profoundly reduced”.

Reference: patent US10017767B2, “Targets in multiple myeloma and other disorders” (FONDAZIONE CENTRO SAN RAFFAELE, priority 2012, dated 2018)
